Entries after “also recorded” stand apart in the source; their conditions may differ.
Tests used:
[1] = tested on: chondrocytes in IL-1α treated cartilage explants; experiment: Chondrocyte viability in cartilage (FDA/PI live-dead staining); type: cell-based, bovine; conditions: IL-1α 2 ng/mL, days 8 and 16
Experimental: (§1) Media was collected and changed every 2 days and IL-1α was replenished with each media change. […] IL-1α is chosen for this in-vitro post-traumatic (PTOA) model as it is elevated during the inflammatory phase following an injury and causes degradation of aggrecans, collagens, inhibits proteoglycan synthesis, and alters chondrocyte viability. 2 ng/mL concentration was chosen as it represents a moderately aggressive cytokine treatment.
On days 8 and 16 of culture, 100 μm thick slices were cut from the center of cartilage disks as described before. Cartilage slices were stained with FDA (4 mg/ml in PBS) and PI ([…] in PBS) for 5 min. FDA stained viable cells green and PI stained the non-viable cells red. Slices were washed with PBS and imaged using a fluorescence microscope (Nikon Eclipse TS2R) at 4× objective. The viable and non-viable cell images were overlaid using ImageJ.

[2] = tested on: IL-1α treated cartilage explants; experiment: Nitrite release from cartilage to medium (Griess assay); type: cell-based, bovine; conditions: IL-1α 2 ng/mL; for Nitrite production: days 2, 8 and 16
Experimental: as §1
Nitrite content was measured using the Griess assay as a marker of nitric oxide (NO) release from cartilage into the medium. Equal volumes of Griess reagent and culture media collected every two days were mixed and incubated at room temperature for 15 min, and absorbance at 540 nm was measured using a microplate reader (Synergy H1, Biotek). Sodium nitrite solution in DMEM was used as a standard to convert absorbance readings to nitrite content in the sample medium.

[3] = tested on: IL-1α treated cartilage explants; experiment: Cellular metabolism in cartilage explants (AlamarBlue); type: cell-based, bovine; conditions: IL-1α 2 ng/mL, days 8 and 16
Experimental: as §1
On days 8 and 16 of culture, cellular metabolism in cartilage explants was determined by measuring the metabolic oxidation activity by using AlamarBlue assay. Briefly, cartilage explants were individually incubated with media containing 1× resazurin sodium salt for 3 h in the dark at 37 °C and 5% CO2. Cell metabolic activity was estimated by measuring fluorescence at 530 nm excitation and 590 nm emission wavelengths using a microplate reader (Synergy H1, Biotek).

[4] = tested on: IL-1 and TNF-α challenged cartilage; conditions: cited from earlier work
Description: Media was collected and changed every 2 days and IL-1α was replenished with each media change.

[5] = Depth of penetration, 1-D transport chamber, confocal imaging, absorption then desorption; type: in vitro ADME, bovine
Experimental: The chamber was placed in a covered petri dish with DI water inside an incubator at 37 °C under gentle shaking. After 24 h, a 100 μm slice was cut from the center of the explant and imaged using a confocal microscope (Zeiss LSM 800). Cy5 (red channel) was excited 640 nm laser and FITC (green channel) was excited using a 488 nm laser. Z-stacks of images from both channels were obtained and maximum intensity along the z-axis was projected. The intensity across the thickness to represent the penetration concentration profile was plotted along a straight line from the superficial to deep zone using FIJI.

endplate chondrocytes = conditions: IGF-1 administration; cited from earlier work
[6] = parameters: method as in 3 sources, ref 37 = [37]; PMID 24470361; doi:10.1002/art.38357; 37. Loffredo FS Pancoast JR Cai L Vannelli T Dong JZ Lee RT Targeted delivery to cartilage is critical for in vivo efficacy of insulin-like growth factor 1 in a rat model of osteoarthritis Arthritis R ||| ref 42 = [42]; PMID 20722014; doi:10.1002/art.27709; 42. Miller RE Grodzinsky AJ Cummings K Plaas AHK Cole AA Lee RT Intraarticular injection of heparin-binding insulin-like growth factor 1 sustains delivery of insulin-like growth factor 1 to cartilage ||| ref 43 = [43]; PMID 30487252; doi:10.1126/scitranslmed.aat8800; 43. Geiger BC Wang S Padera RF Grodzinsky AJ Hammond PT Cartilage-penetrating nanocarriers improve delivery and efficacy of growth factor treatment of osteoarthritis Sci Transl Med 2018 10 eaat8800 10; conditions: cited from earlier work; for Detection in cartilage samples: rat cartilage, 6 days post-IA injection
[7] = tested on: human OA cartilage explants; parameters: method as in PMID 18050312; conditions: cited from earlier work
[8] = tested on: IL-1α treated cartilage explants; experiment: GAG loss from cartilage (DMMB), IL-1α-challenged explant culture post-traumatic OA model; type: cell-based, bovine; conditions: IL-1α 2 ng/mL
Experimental: as §1
After 16 days of culture, the cartilage explants were weighed and digested using Proteinase-K solution in Tris buffer at pH 8. The cumulative GAG released to the media and the residual GAG content in the digested tissue explants was measured using DMMB assay. The GAG content was expressed as a percentage of the total GAG content (in media + residual GAG in the digested explant).

rat knee joints = conditions: post-IA injection in ACL transected (ACLT) rat knee joints, compared to free IGF-1; cited from earlier work
Description: The high negative FCD of cartilage resulting from the negatively charged GAGs provides a unique opportunity to make drug cartilage penetrating using cationic carriers.

[9] = single dose 1000 ng/ml IGF-1 (S), free or as conjugate

## IGF-1: Human recombinant insulin-like growth factor-1, ~7.6 kDa pro-anabolic growth factor (PeproTech)
[1]; continuous dose 100 ng/ml (C)
  Chondrocyte viability: match the response from the untreated control condition
[1]; single dose 100 ng/ml (S)
  Chondrocyte viability: not effective in rescuing chondrocyte metabolic activity or viability
[1]; [9]
  Chondrocyte viability: failed to rescue the reduced cell metabolism and viability over the long-term; also recorded: not effective
[2]; continuous dose 100 ng/ml (C), 16 days
  Cumulative nitrite levels: significantly suppressed the IL-1-induced cumulative nitrite levels
[2]; single dose 100 ng/ml (S)
  Nitrite production: suppressed nitrite production only on day 2
[2]; [9]
  Nitrite production: suppressed nitrite production only on day 2
[3]; continuous dose 100 ng/ml (C)
  Chondrocyte metabolic activity: match the response from the untreated control condition
[3]; single dose 100 ng/ml (S)
  Chondrocyte metabolic activity: not effective in rescuing chondrocyte metabolic activity or viability
[3]; [9]
  Chondrocyte metabolic activity: failed to rescue the reduced cell metabolism and viability over the long-term; also recorded: ineffective in rescuing the reduced metabolic rate
[4]; IL-1 and TNF-α challenged cartilage culture models, multiple dosing
  Saturating concentration for suppression of GAG loss: 100 ng/mL
[4]; similar cartilage explant culture model
  Concentration at which the therapeutic effect saturates (suppression of IL-1α-induced catabolic activity): 100 ng/mL
[5]
  Depth of penetration from superficial to deep zone: penetrated through the full thickness of cartilage
  Retention in cartilage after desorption: most of the free IGF-1 desorbed out of the cartilage
  Time for desorption out of the cartilage: ≤ 24 h
Endplate chondrocytes
  Decrease of MMP-13 expression: 50%
[6]; 24 h post-IA injection in rats
  Retention in cartilage / joint tissues: no free IGF-1 was detectable in any joint tissues
[6]; 2 days post-IA injection in rat knees
  Retention in cartilage: no retention of free IGF-1 was observed in cartilage
[6]
  Detection in cartilage samples: no trace of free IGF-1 was detectable
[7]; 3 ng/ml IGF-1, milder degree of OA explants (MANKIN score 4)
  Increase of proteoglycan synthesis: 1.8 fold
[7]; 30 ng/ml IGF-1, advanced OA cartilage explants (MANKIN score 8)
  Enhancement of proteoglycan synthesis: 2.6 fold
[8]; continuous dose 100 ng/ml (C), replenished every 2 days, 16-day culture
  GAG loss to media: keep the GAG loss levels down to control levels
[8]; single dose 100 ng/ml (S), first 2 days only, day 2
  GAG loss to media: significantly inhibited GAG loss by day 2
[8]; single dose 1000 ng/ml IGF-1 (S), free or as conjugate, 16-day culture
  Cumulative GAG loss to media: remained ineffective in providing a prolonged effect

## PAMAM-IGF-1: IGF-1 carried by polyamidoamine (PAMAM) dendrimer cationic nanoparticles (Gen 6, 58 kDa) [reference compound]
Rat knee joints
  Matrix degradation and osteophyte formation: significantly suppressed matrix degradation and osteophyte formation
[6]
  Detection in cartilage samples: detected
[6]; rat knee joint space post-IA injection
  Duration of bioavailability of IGF-1 in the knee joint space: 30.4 days

Source: publication PMC9297664, “Cationic peptide carriers enable long-term delivery of insulin-like growth factor-1 to suppress osteoarthritis-induced matrix degradation” (Arthritis Research & Therapy, 2022)
